In brackets after ≈: the same amount, converted by molar mass. Like-named read-outs stand apart in the source and are kept apart here.
Columns and labels:
Test in all cases: In vitro antibacterial activity test (broth microdilution)
Format in all cases: cell-based
P. aeruginosa 1912E = test system: P. aeruginosa 1912E
How it was run: (§1)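 Susceptibility of clinical bacterial isolates is measured by CLSI broth microdilution. Final drug concentrations range 0.0626–128 ug/mL in 2.5% (V/V) DMSO; MIC90 recorded as lowest concentration blocking visible growth of 90% of organisms.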

A. baumannii 52 = test system: A. baumannii 52
How it was run: as §1

E. coli AG100 = test system: E. coli AG100
How it was run: as §1

M. catarrhalis 2524 = conditions: Moraxella catarrhalis
How it was run: as §1

K. pneumoniae β9 = test system: K. pneumoniae β9
How it was run: as §1

A. baumannii 49 = test system: A. baumannii 49
How it was run: as §1

P. aeruginosa 40 = test system: P. aeruginosa 40
How it was run: as §1

K. pneumoniae 2011E = test system: K. pneumoniae 2011E
How it was run: as §1

E. coli β4 = test system: E. coli β4
How it was run: as §1

K. pneumoniae β11 = test system: K. pneumoniae β11
How it was run: as §1

[1] = test system: A. calcoaceticus ATCC15473
How it was run: as §1

P. aeruginosa 37 = test system: P. aeruginosa 37
How it was run: as §1

K. pneumoniae β13 = test system: K. pneumoniae β13
How it was run: as §1

P. aeruginosa 43 = test system: P. aeruginosa 43
How it was run: as §1

E. cloacae β19 = test system: E. cloacae β19
How it was run: as §1

K. pneumoniae β14 = test system: K. pneumoniae β14
How it was run: as §1

A. baumannii 46 = test system: A. baumannii 46
How it was run: as §1

P. aeruginosa 6065Y = conditions: Pseudomonas aeruginosa
How it was run: as §1

K. pneumoniae β10 = test system: K. pneumoniae β10
How it was run: as §1

[2] = Acinetobacter baumannii, 49, A. baumannii 49
[3] = Acinetobacter calcoaceticus, ATCC15473, A. calcoaceticus ATCC15473
[4] = Pseudomonas aeruginosa, 37, P. aeruginosa 37
[5] = Acinetobacter baumannii, 46, A. baumannii 46
[6] = M. catarrhalis 2524, read-out: MIC90

Structure (SMILES)	MIC90 (P. aeruginosa 1912E; Pseudomonas aeruginosa, 1912E)	MIC90 (A. baumannii 52; Acinetobacter baumannii, 52)	MIC90 (E. coli AG100; Escherichia coli, AG100)	MIC90 (M. catarrhalis 2524; 2524)	MIC90 (K. pneumoniae β9; Klebsiella pneumoniae)	MIC90 (A. baumannii 49; [2])	MIC90 (P. aeruginosa 40; Pseudomonas aeruginosa, 40)	MIC90 (K. pneumoniae 2011E; Klebsiella pneumoniae, 2011E)	MIC90 (E. coli β4; Escherichia coli)	MIC90 (K. pneumoniae β11; Klebsiella pneumoniae)	MIC90 [1, 3]	MIC90 (P. aeruginosa 37; [4])	MIC90 (K. pneumoniae β13; Klebsiella pneumoniae)	MIC90 (P. aeruginosa 43; Pseudomonas aeruginosa, 43)	MIC90 (E. cloacae β19; Enterobacter cloacae)	MIC90 (K. pneumoniae β14; Klebsiella pneumoniae)	MIC90 (A. baumannii 46; [5])	MIC90 (P. aeruginosa 6065Y; 6065Y)	MIC90 (K. pneumoniae β10; Klebsiella pneumoniae)	MIC90 (M. catarrhalis 2524; [6])	other results
CNCCNc1c[n+](C/C=C/C2=C(C(=O)[O-])N3C(=O)[C@@H](NC(=O)/C(=N\OC(C)(C)C(=O)O)c4csc(N)n4)C3SC2)cnc1N (some centres unmarked) [Compound 51]	2 µg/mL (≈ 3.03 µM)	128 µg/mL (≈ 194 µM)	0.125 µg/mL (≈ 0.189 µM)	< 0.0625 µg/mL	0.5 µg/mL (≈ 0.757 µM)	> 128 µg/mL	4 µg/mL (≈ 6.05 µM)	0.5 µg/mL (≈ 0.757 µM)	0.125 µg/mL (≈ 0.189 µM)	32 µg/mL (≈ 48.4 µM)	0.5 µg/mL (≈ 0.757 µM)	32 µg/mL (≈ 48.4 µM)	0.5 µg/mL (≈ 0.757 µM)	64 µg/mL (≈ 96.9 µM)	32 µg/mL (≈ 48.4 µM)	0.5 µg/mL (≈ 0.757 µM)	8 µg/mL (≈ 12.1 µM)	32 µg/mL (≈ 48.4 µM)	0.25 µg/mL (≈ 0.378 µM)	–	–
CC(C)(O/N=C(\C(=O)N[C@@H]1C(=O)N2C(C(=O)[O-])=C(/C=C/C[n+]3cnc(N)c(NCCNC(=O)c4cc(=O)c(O)cn4O)c3)CSC12)c1csc(N)n1)C(=O)O (some centres unmarked) [Compound 10]	–	–	–	–	–	–	–	–	–	–	–	–	–	–	–	–	–	–	–	0.5 µg/mL (≈ 0.625 µM)	MIC90 (P. aeruginosa 1912E): 4 µg/mL (≈ 5 µM); MIC90 (A. baumannii 52; A. baumannii 52): >128 µg/mL; MIC90 (E. coli AG100; E. coli AG100): 0.125 µg/mL (≈ 0.156 µM); MIC90 (K. pneumoniae β9; K. pneumoniae β9): 0.25 µg/mL (≈ 0.313 µM); MIC90 (A. baumannii 49; A. baumannii 49): >128 µg/mL; MIC90 (P. aeruginosa 40; P. aeruginosa 40): 1 µg/mL (≈ 1.25 µM); MIC90 (K. pneumoniae 2011E; K. pneumoniae 2011E): 2 µg/mL (≈ 2.5 µM); MIC90 (E. coli β4): 0.5 µg/mL (≈ 0.625 µM); MIC90 (K. pneumoniae β11; K. pneumoniae β11): 32 µg/mL (≈ 40 µM); MIC90 ([1]; A. calcoaceticus ATCC15473): 2 µg/mL (≈ 2.5 µM); MIC90 (P. aeruginosa 37; P. aeruginosa 37): 2 µg/mL (≈ 2.5 µM); MIC90 (K. pneumoniae β13; K. pneumoniae β13): 2 µg/mL (≈ 2.5 µM); MIC90 (P. aeruginosa 43; P. aeruginosa 43): 1 µg/mL (≈ 1.25 µM); MIC90 (E. cloacae β19): 0.5 µg/mL (≈ 0.625 µM); MIC90 (K. pneumoniae β14): 8 µg/mL (≈ 10 µM); MIC90 (A. baumannii 46; A. baumannii 46): 8 µg/mL (≈ 10 µM); MIC90 (P. aeruginosa 6065Y; read-out: MIC90): 4 µg/mL (≈ 5 µM); MIC90 (K. pneumoniae β10; K. pneumoniae β10): <0.0625 µg/mL
CC(C)(O/N=C(\C(=O)N[C@@H]1C(=O)N2C(C(=O)[O-])=C(/C=C/C[n+]3cnc(N)c(NC(=O)CCCN)c3N)CSC12)c1nc(N)sc1Cl)C(=O)O (some centres unmarked) [Compound 67]	4 µg/mL (≈ 5.42 µM)	64 µg/mL (≈ 86.7 µM)	0.5 µg/mL (≈ 0.677 µM)	< 0.0625 µg/mL	8 µg/mL (≈ 10.8 µM)	64 µg/mL (≈ 86.7 µM)	16 µg/mL (≈ 21.7 µM)	2 µg/mL (≈ 2.71 µM)	2 µg/mL (≈ 2.71 µM)	8 µg/mL (≈ 10.8 µM)	4 µg/mL (≈ 5.42 µM)	16 µg/mL (≈ 21.7 µM)	2 µg/mL (≈ 2.71 µM)	> 128 µg/mL	32 µg/mL (≈ 43.3 µM)	4 µg/mL (≈ 5.42 µM)	64 µg/mL (≈ 86.7 µM)	32 µg/mL (≈ 43.3 µM)	4 µg/mL (≈ 5.42 µM)	–	–
CC(C)(O/N=C(\C(=O)N[C@@H]1C(=O)N2C(C(=O)[O-])=C(C[n+]3cnc(N)c(NCCCCNC(=O)c4cc(=O)c(O)cn4O)c3)CSC12)c1csc(N)n1)C(=O)O (some centres unmarked) [Compound 7]	–	–	–	–	–	–	–	–	–	–	–	–	–	–	–	–	–	–	–	2 µg/mL (≈ 2.49 µM)	MIC90 (P. aeruginosa 1912E; Pseudomonas aeruginosa, 1912E, read-out: MIC90): 0.5 µg/mL (≈ 0.624 µM); MIC90 (A. baumannii 52; Acinetobacter baumannii, A. baumannii 52, read-out: MIC90): 16 µg/mL (≈ 20 µM); MIC90 (E. coli AG100; Escherichia coli, AG100, E. coli AG100, read-out: MIC90): < 0.0625 µg/mL; MIC90 (K. pneumoniae β9; Klebsiella pneumoniae, K. pneumoniae β9, read-out: MIC90): < 0.0625 µg/mL; MIC90 (A. baumannii 49; Acinetobacter baumannii, A. baumannii 49, read-out: MIC90): 8 µg/mL (≈ 9.98 µM); MIC90 (P. aeruginosa 40; Pseudomonas aeruginosa, 40, P. aeruginosa 40, read-out: MIC90): 0.125 µg/mL (≈ 0.156 µM); MIC90 (K. pneumoniae 2011E; Klebsiella pneumoniae, 2011E, K. pneumoniae 2011E, read-out: MIC90): 2 µg/mL (≈ 2.49 µM); MIC90 (E. coli β4; Escherichia coli, read-out: MIC90): 0.125 µg/mL (≈ 0.156 µM); MIC90 (K. pneumoniae β11; Klebsiella pneumoniae, K. pneumoniae β11, read-out: MIC90): 16 µg/mL (≈ 20 µM); MIC90 ([1]; Acinetobacter calcoaceticus, A. calcoaceticus ATCC15473, read-out: MIC90): 1 µg/mL (≈ 1.25 µM); MIC90 (P. aeruginosa 37; Pseudomonas aeruginosa, 37, P. aeruginosa 37, read-out: MIC90): 0.125 µg/mL (≈ 0.156 µM); MIC90 (K. pneumoniae β13; Klebsiella pneumoniae, K. pneumoniae β13, read-out: MIC90): < 0.0625 µg/mL; MIC90 (P. aeruginosa 43; Pseudomonas aeruginosa, P. aeruginosa 43, read-out: MIC90): 0.25 µg/mL (≈ 0.312 µM); MIC90 (E. cloacae β19; Enterobacter cloacae, read-out: MIC90): 1 µg/mL (≈ 1.25 µM); MIC90 (K. pneumoniae β14; Klebsiella pneumoniae, read-out: MIC90): 32 µg/mL (≈ 39.9 µM); MIC90 (A. baumannii 46; Acinetobacter baumannii, A. baumannii 46, read-out: MIC90): 4 µg/mL (≈ 4.99 µM); MIC90 (P. aeruginosa 6065Y; read-out: MIC90): 1 µg/mL (≈ 1.25 µM); MIC90 (K. pneumoniae β10; Klebsiella pneumoniae, K. pneumoniae β10, read-out: MIC90): 4 µg/mL (≈ 4.99 µM)
CC(C)(O/N=C(\C(=O)N[C@@H]1C(=O)N2C(C(=O)[O-])=C(/C=C/C[n+]3cnc(N)c(NCCN)c3)CSC12)c1nc(N)sc1Cl)C(=O)O (some centres unmarked) [Compound 54]	2 µg/mL (≈ 2.94 µM)	32 µg/mL (≈ 47 µM)	0.25 µg/mL (≈ 0.367 µM)	< 0.0625 µg/mL	1 µg/mL (≈ 1.47 µM)	128 µg/mL (≈ 188 µM)	4 µg/mL (≈ 5.87 µM)	1 µg/mL (≈ 1.47 µM)	0.5 µg/mL (≈ 0.734 µM)	2 µg/mL (≈ 2.94 µM)	1 µg/mL (≈ 1.47 µM)	4 µg/mL (≈ 5.87 µM)	1 µg/mL (≈ 1.47 µM)	64 µg/mL (≈ 94 µM)	4 µg/mL (≈ 5.87 µM)	1 µg/mL (≈ 1.47 µM)	4 µg/mL (≈ 5.87 µM)	16 µg/mL (≈ 23.5 µM)	0.5 µg/mL (≈ 0.734 µM)	–	–

Source: patent US9630977B2, “Cephalosporin derivatives and pharmaceutical compositions thereof” (Legochem Biosciences, Inc., priority 2011, dated 2017)
